Test results reported in patent publication US8329908B2, “Dual action antibiotics” (Morphochem Aktiengesellschaft fur Kombinatorische Chemie, priority 2001, dated 2012).

How the values were obtained:
E. faecium = assay: MIC against E. faecium; format: cell-based
Procedure: (§1) All examples were tested against several gram positive and gram negative bacteria. They all have a broader and more pronounced activity than the corresponding quinolone and oxazolidinone as well as a 1+1 combination of these two compounds.

S. aureus (MRSA) = assay: MIC against S. aureus (MRSA); format: cell-based
Procedure: as §1

S. aureus (MSSA) = assay: MIC against S. aureus (MSSA); format: cell-based
Procedure: as §1

S. pneumoniae = assay: MIC against S. pneumoniae; format: cell-based
Procedure: as §1

E. faecalis = assay: MIC against E. faecalis; format: cell-based
Procedure: as §1

Structure (SMILES) | melting point | Typical MIC range (E. faecium) [µg/mL] | Typical MIC range (S. aureus (MRSA)) [µg/mL] | Typical MIC range (S. aureus (MSSA)) [µg/mL] | Typical MIC range (S. pneumoniae) [µg/mL] | Typical MIC range (E. faecalis) [µg/mL]
CC(=O)NC[C@H]1CN(c2ccc(N3CCN(c4cc5c(cc4F)c(=O)c(C(=O)O)cn5C4CC4)CC3)c(F)c2)C(=O)O1 (stereo in doubt) [Example 1, 7-(4-{4-[5-(acetylamino-methyl)-2-oxo-oxazolidin-3-yl]-2-fluoro-phenyl}-piperazin-1-yl)-1-cyclopropyl-6-fluoro-4-oxo-1,4-dihydro-quinoline-3-carboxylic acid] | 315 to 320 °C (dec.) |  |  |  |  | 
CC(=O)NC[C@H]1CN(c2ccc(N3CCN(c4c(F)cc5c(=O)c(C(=O)O)cn6c5c4OCC6C)CC3)c(F)c2)C(=O)O1 (stereo partly drawn) [Example 2, 9-(4-{4-[5-(acetylamino-methyl)-2-oxo-oxazolidin-3-yl]-2-fluoro-phenyl}-piperazin-1-yl)-8-fluoro-3-methyl-6-oxo-2,3-dihydro-6H-1-oxa-3a-aza-phenalene-5-carboxylic acid] | 258 °C (dec.) |  |  |  |  | 
O=C(O)c1cn(C2CC2)c2cc(N3CCNCC3)c(F)cc2c1=O [ciprofloxacin] |  | 0.25 to 32 | 0.5 to 32 | 0.125 to 1 | 1 to 4 | 0.5 to 32
CC(=O)NC[C@H]1CN(c2ccc(N3CCOCC3)c(F)c2)C(=O)O1 [linezolid] |  | 1 to 2 | 1 to 2 | 1 to 2 | 0.125 to 1 | 0.5 to 2
